Results: US20240245670A1, “DOSING REGIMEN AND PHARMACEUTICAL COMBINATION COMPRISING 3-(1-OXOISOINDOLIN-2-YL)PIPERIDINE-2,6-DIONE DERIVATIVES” (Novartis AG, priority 2018, published 2024)
“Also recorded” adds a separate entry of the source.

How the values were obtained:
[1] = test system: IKZF2 expression in FOXP3+ T cells from PBMCs; assay: PD after single oral dose in cynomolgus monkey: IKZF2 expression by flow cytometry; format: in vivo
Procedure: (§1) FIG. 4 is a graph showing the PK/PD relationship in the cynomolgus monkey after a single oral of 0.01, 0.1 or 1 mg/kg of Compound I-57.
(§2) FIG. 5. is a graph showing plasma concentration in the cynomolgus monkey of Compound I-57 and IKZF2 expression (as determined by flow cytometry) in FOXP3+ T cells from PBMCs after a single oral of 0.01, 0.1 or 1 mg/kg of Compound I-57.
(§3) The PK/PD relationship of I-57 was examined in cynomolgus monkeys after a single oral dose of 0.01, 0.1 or 1 mg/kg. I-57 plasma concentration and IKZF2 expression (as determined by flow cytometry) in FOXP3+ T cells from PBMCs were determined (FIG. 4 and FIG. 5).
Decreased (percentage change) IKZF2 positive FOXP3-cells, as determined by flow cytometry, were detectable at 4h post dose in the 1 mg/kg and 0.1 mg/kg groups, reaching maximum at 12-24 hrs post-dose and maintaining this maximum for 12-24 hrs.

[2] = test system: IKZF2 expression in FOXP3+ T cells from PBMCs; assay: PD after repeated daily oral dosing in immunized cynomolgus monkeys: IKZF2 by flow cytometry (FIG. 9A); format: in vivo, cynomolgus monkey
Procedure: FIG. 9A. is a graph showing the degradation of IKZF2 measured in FOXP3+ T cells upon repeated daily dosing in immunized cynomolgus monkeys treated daily with Compound I-57. Compound treatment was initiated at day 5.
The PK/PD relationship of I-57 was further examined in cynomolgus monkeys after repeated daily oral doses of 0.1 and 3 mg/kg. In this study, a cohort of animals were initially immunized with an antigen-adjuvant mixture (KLH/Squalene). The experiment was designed to assess the effect of I-57 exposure, and the resulting IKZF2 degradation, on immune response during immunization to test the hypothesis that IKZF2 degradation would result in increased proliferation of stimulated T-cells. In the experiment, daily I-57 oral treatment was initiated 5 days after immunization. An immunization booster dose was administered on day 15. I-57 plasma concentration and IKZF2 expression (as determined by flow cytometry) in FOXP3+ T cells from PBMCs were determined (FIG. 9A and FIG. 9B).
Consistent with previous findings, IKZF2 degradation was detected 24 h after the first dose (at day 6) (FIG. 9A and FIG. 9B). The levels of IKZF2 decreased further upon repeat dosing and reached a steady-state level approximately 72 h after initiation of treatment. This level of degradation was maintained throughout the remainder of the treatment (24 days).

[3] = PK in repeated oral dose study, MDA-MB231 xenograft human PBMC adoptive transfer mouse model (Table 14); format: in vivo; conditions: for AUCinf (unbound) / Cmax (unbound): mouse, unbound (73% PPB in mouse)
Procedure: FIG. 6 is a pictorial representation of the multi-dose PK/PD study design in the human PBMC adoptive transfer mouse model harboring MDA-MB231 xenografts. Fourteen consecutive daily doses of Compound I-57 was administered at 0.3 mg/kg, 1 mg/kg, 3 mg/kg or 30 mg/kg.
The PK/PD relationship of I-57 was examined in the hPBMC AdT model system. Human PBMCs were adoptively transferred into female NSG mice harboring established MDA-MB231 xenografts (FIG. 6). This model was selected based on the observation that IKZF2 positive Tregs (CD4+FOXP3+) were readily identifiable in peripheral blood and infiltrated in the tumor xenografts.
Mice were administered I-57 daily for 14 consecutive days at the doses shown. Longitudinal I-57 plasma concentrations were assessed (Table 14).
Based on the data from this hPBMC AdT mouse model, unbound I-57 (73% percent plasma binding in the mouse) exposures (AUCinf) of 7, 30, 157 and 3474 ng*h/mL are required to achieve the reduction of IKZF2 positivity (via flow cytometry) in tumor Tregs by 31, 43, 56, and 75%, respectively. The relationship between the magnitude and duration of I-57-mediated IKZF2 degradation and subsequent modulation of therapeutically relevant downstream biology is not yet well understood.

[4] = PK after single oral dose in cynomolgus monkey (FIG. 4, FIG. 5, Table 13); format: in vivo; conditions: for AUC24 h (unbound) / AUC24 h/Dose (unbound) / Cmax (unbound) / Cmax/Dose (unbound): cynomolgus monkey, unbound exposure, n = 3, mean ± SD
Procedure: as §1, §2, §3

IKZF2 = IKZF2 (Homo sapiens, UniProt Q96SW2+Q9UKS7); assay: Degradation of prolabel-tagged target proteins in HEK293T cells (FIG. 1); format: cell-based; parameters: prolabel; expressed in transfected cells; host or cells: HEK293T; conditions: HEK293T cells overexpressing prolabel-tagged target proteins; various concentrations
Text: FIG. 1. is a graph showing the selectivity of Compound I-57 for the degradation of IKZF2 over the other IKAROS family members, IKZF1, IKZF4, and GSPT1 at various concentrations in HEK293T cells overexpressing prolabel-tagged target proteins.
Although the specific transcriptional targets of IKZF2 remain to be defined, IKZF2 binds to and represses transcription from the IL-2 promoter region (Baine 2013). […] Finally, an in vitro assay recapitulating hallmarks of T cell dysfunction/exhaustion, by sequential TCR stimulation of isolated primary human T cells, was used to test the hypothesis that […] would rescue the exhausted phenotype and enhance Teff cell activity. […] In addition to IKZF1, other known cereblon substrates including translation termination factor G1 to S phase transition 1 (GSPT1) are not degraded by I-57 (FIG. 1).

[5] = In vivo non-clinical PK profile, i.v. and p.o., all species tested (mouse, rat, dog, cynomolgus monkey)
Procedure: The in vivo non-clinical PK profile of I-57 was investigated in mouse, rat, dog and cynomolgus monkey using I-57 free base. […] After p.o. administration, the absorption of I-57 was rapid with peak blood concentration (Tmax) occurring between 1 and 4 hours. […] In high dose PK and toxicology studies with I-57 the exposures in mouse, rat and monkey increased with dose.

[6] = single oral dose of 0.01, 0.1 or 1 mg/kg
[7] = p.o. 0.3 mg/kg daily, post 1st dose
[8] = p.o. 0.3 mg/kg daily, post 13th dose
[9] = p.o. 1 mg/kg daily, post 1st dose
[10] = p.o. 1 mg/kg daily, post 13th dose
[11] = p.o. 3 mg/kg daily, post 1st dose
[12] = p.o. 3 mg/kg daily, post 13th dose
[13] = p.o. 30 mg/kg daily, post 1st dose
[14] = p.o. 30 mg/kg daily, post 13th dose

IKZF2, sequence (Q9UKS7 whole entry): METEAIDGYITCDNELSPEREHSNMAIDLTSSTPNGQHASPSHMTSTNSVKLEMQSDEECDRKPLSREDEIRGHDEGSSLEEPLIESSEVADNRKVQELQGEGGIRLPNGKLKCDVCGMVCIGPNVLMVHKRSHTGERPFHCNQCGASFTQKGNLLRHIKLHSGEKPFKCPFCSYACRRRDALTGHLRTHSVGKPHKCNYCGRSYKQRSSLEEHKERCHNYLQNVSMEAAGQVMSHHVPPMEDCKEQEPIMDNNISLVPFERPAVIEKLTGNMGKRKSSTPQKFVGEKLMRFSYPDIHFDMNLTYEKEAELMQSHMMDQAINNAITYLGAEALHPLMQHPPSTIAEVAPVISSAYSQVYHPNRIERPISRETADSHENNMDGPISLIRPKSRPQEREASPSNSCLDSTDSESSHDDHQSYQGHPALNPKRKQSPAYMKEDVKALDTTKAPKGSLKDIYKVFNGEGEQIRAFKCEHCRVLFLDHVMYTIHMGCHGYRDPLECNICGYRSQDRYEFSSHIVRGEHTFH
IKZF2, sequence (Q96SW2 whole entry): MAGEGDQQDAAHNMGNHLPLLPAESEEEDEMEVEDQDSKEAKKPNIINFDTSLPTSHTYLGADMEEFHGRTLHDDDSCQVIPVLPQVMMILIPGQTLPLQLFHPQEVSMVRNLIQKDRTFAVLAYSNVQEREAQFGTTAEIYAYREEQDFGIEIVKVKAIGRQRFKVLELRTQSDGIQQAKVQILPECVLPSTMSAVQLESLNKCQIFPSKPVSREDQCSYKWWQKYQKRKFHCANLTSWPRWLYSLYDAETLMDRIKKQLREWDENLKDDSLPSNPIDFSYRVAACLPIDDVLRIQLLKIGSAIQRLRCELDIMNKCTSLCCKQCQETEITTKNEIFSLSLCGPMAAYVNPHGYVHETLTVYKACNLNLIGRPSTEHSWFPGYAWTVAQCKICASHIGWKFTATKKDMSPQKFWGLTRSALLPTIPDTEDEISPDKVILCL
IKZF2, sequence (Q16531 whole entry partner): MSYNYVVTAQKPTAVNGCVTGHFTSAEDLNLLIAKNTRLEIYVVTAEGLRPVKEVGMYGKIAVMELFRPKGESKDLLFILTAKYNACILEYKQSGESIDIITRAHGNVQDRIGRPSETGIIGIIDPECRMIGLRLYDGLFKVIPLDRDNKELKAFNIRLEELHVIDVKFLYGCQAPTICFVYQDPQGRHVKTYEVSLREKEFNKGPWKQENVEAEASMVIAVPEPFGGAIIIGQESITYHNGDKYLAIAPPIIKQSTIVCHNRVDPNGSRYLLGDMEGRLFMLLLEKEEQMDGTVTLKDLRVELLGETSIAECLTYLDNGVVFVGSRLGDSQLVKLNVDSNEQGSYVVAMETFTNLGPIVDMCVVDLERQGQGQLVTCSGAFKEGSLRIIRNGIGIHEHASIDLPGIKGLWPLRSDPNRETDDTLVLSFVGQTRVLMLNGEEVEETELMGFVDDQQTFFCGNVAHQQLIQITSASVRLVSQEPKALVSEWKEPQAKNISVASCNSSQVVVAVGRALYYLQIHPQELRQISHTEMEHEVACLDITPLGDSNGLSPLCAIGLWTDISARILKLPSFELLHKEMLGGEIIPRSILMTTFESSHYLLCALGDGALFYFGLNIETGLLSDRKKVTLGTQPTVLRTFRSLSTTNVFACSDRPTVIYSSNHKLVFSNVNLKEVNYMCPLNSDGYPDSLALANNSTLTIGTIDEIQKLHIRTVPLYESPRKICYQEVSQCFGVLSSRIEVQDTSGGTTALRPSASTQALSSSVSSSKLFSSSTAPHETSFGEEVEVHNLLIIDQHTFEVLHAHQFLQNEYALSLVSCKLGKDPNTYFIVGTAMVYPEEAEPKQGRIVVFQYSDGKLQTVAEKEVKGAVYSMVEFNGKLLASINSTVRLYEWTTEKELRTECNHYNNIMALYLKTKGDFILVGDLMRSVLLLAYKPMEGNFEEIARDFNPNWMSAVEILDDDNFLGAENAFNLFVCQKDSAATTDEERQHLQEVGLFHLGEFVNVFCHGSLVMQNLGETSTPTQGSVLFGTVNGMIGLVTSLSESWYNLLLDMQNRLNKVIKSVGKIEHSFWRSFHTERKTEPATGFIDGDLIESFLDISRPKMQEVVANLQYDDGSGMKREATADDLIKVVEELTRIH

O=C1CCC(N2Cc3cc(C4CCN(Cc5ccccc5)CC4)ccc3C2=O)C(=O)N1 (stereo not shown) [Compound I-57, 3-(5-(1-benzylpiperidin-4-yl)-1-oxoisoindolin-2-yl)piperidine-2,6-dione]
time at which decreased IKZF2 positive FOXP3 cells were detectable ([1]; post dose, 1 mg/kg and 0.1 mg/kg groups): 4 h | duration for which maximum decrease was maintained ([1]; single oral dose): 12 to 24 h | dose dependence of decrease in IKZF2 positive cells [1, 6]: dose dependent | time to steady-state level of IKZF2 ([2]; after initiation of treatment, repeat daily dosing): approximately 72 h | time at which IKZF2 degradation was detected ([2]; after the first dose (at day 6), daily oral 0.1 and 3 mg/kg): 24 h | increase in AUC and Cmax with dose ([3]; between 3 and 30 mg/kg, daily oral): over-dose proportional increase | increase in overall AUC and Cmax with dose ([3]; from 0.3 to 3 mg/kg, daily oral): dose proportional increase | AUCinf (unbound) [3, 7]: 7.1 ng·h/mL | Cmax (unbound) [3, 7]: 2.9 ng/mL | AUCinf (unbound) [3, 8]: 7.5 ng·h/mL | Cmax (unbound) [3, 8]: 1.1 ng/mL | AUCinf (unbound) [3, 9]: 30 ng·h/mL | Cmax (unbound) [3, 9]: 8.8 ng/mL | AUCinf (unbound) [3, 10]: 20 ng·h/mL | Cmax (unbound) [3, 10]: 4.6 ng/mL | AUCinf (unbound) [3, 11]: 157 ng·h/mL | Cmax (unbound) [3, 11]: 53 ng/mL | AUCinf (unbound) [3, 12]: 92 ng·h/mL | Cmax (unbound) [3, 12]: 27 ng/mL | AUCinf (unbound) [3, 13]: 3470 ng·h/mL | Cmax (unbound) [3, 13]: 1250 ng/mL | AUCinf (unbound) [3, 14]: 4270 ng·h/mL | Cmax (unbound) [3, 14]: 1300 ng/mL | unbound exposure (AUCinf) ([3]; required for reduction of IKZF2 positivity in tumor Tregs by 31%): 7 ng·h/mL | unbound exposure (AUCinf) ([3]; required for reduction of IKZF2 positivity in tumor Tregs by 43%): 30 ng·h/mL | unbound exposure (AUCinf) ([3]; required for reduction of IKZF2 positivity in tumor Tregs by 56%): 157 ng·h/mL | unbound exposure (AUCinf) ([3]; required for reduction of IKZF2 positivity in tumor Tregs by 75%): 3474 ng·h/mL | AUC24 h (unbound) ([4]; single oral dose 0.01 mg/kg): 14.1 ± 4.72 ng·h/mL | AUC24 h/Dose (unbound) ([4]; single oral dose 0.01 mg/kg): 1410 ± 472 (ng · h/mL)/(mg/kg) | Cmax (unbound) ([4]; single oral dose 0.01 mg/kg): 2.11 ± 0.69 ng/mL | Cmax/Dose (unbound) ([4]; single oral dose 0.01 mg/kg): 211 ± 69.1 (ng/mL)/(mg/kg) | AUC24 h (unbound) ([4]; single oral dose 0.1 mg/kg): 102 ± 13.2 ng·h/mL | AUC24 h/Dose (unbound) ([4]; single oral dose 0.1 mg/kg): 1020 ± 136 (ng · h/mL)/(mg/kg) | Cmax (unbound) ([4]; single oral dose 0.1 mg/kg): 13.4 ± 2.77 ng/mL | Cmax/Dose (unbound) ([4]; single oral dose 0.1 mg/kg): 134 ± 27.7 (ng/mL)/(mg/kg) | AUC24 h (unbound) ([4]; single oral dose 1 mg/kg): 610 ± 236 ng·h/mL | AUC24 h/Dose (unbound) ([4]; single oral dose 1 mg/kg): 610 ± 236 (ng · h/mL)/(mg/kg) | Cmax (unbound) ([4]; single oral dose 1 mg/kg): 102 ± 45.3 ng/mL | Cmax/Dose (unbound) ([4]; single oral dose 1 mg/kg): 102 ± 45.3 (ng/mL)/(mg/kg) | dose proportionality of observed exposures [4, 6]: slightly less than dose proportional | degradation of IKZF2 (IKZF2): potent and specific degrader; also recorded: potent and specific degradation | terminal half-life (T1/2) ([5]; i.v. administration, all species tested): moderate | absorption ([5]; p.o. administration): rapid
